{
  "source": "patent US20230069886A1",
  "about": "“AROMATIC SULPHONAMIDES DERIVATIVES THAT INHIBITS PDI A3, THEIR SYNTHESIS AND USE” (Uniwersytet Jagiellonski, priority 2020, published 2023)",
  "test_system": "MDA-MB-231 cell transmigration across IL-1β-stimulated hLMVECs",
  "assay": "Transendothelial migration of MDA-MB-231 cells across hLMVEC monolayer",
  "format": "cell-based, human",
  "details": "IL-1β 10 ng/mL (6 hours)-stimulated hLMVECs, 24 h co-culture, FIG. 6",
  "procedure": "To assess whether compounds of invention, PDI A3-inhibitors are also effective as inhibitors of cancer cell transmigration through endothelium the transmigration assay with MDA-MB-231/lung microvascular endothelium was used as described previously (Stojak et al., 2018). Cell migration was assayed in 24-well, 6.5-mm internal-diameter Transwell plates (8.0 μm pore size; BD Pharmingen). Human lung microvascular endothelial cells (hLMVECs) were seeded into 24-well plates (seeding density 5×10^4 cells/insert) on the upper side of the filter and left to grow to confluence. After confluent monolayer formation, hLMVECs were pre-treated with 10 ng/mL IL-1β for 6 h. Prior to use in transmigration assay, cancer cells were pre-incubated with various concentrations (3, 10, 30, 50, 100 μM) of tested inhibitors of PDIA3, C-3390, C-3399 for 30 min. Then, MDA-MB-231 cells (each 5×10^4 per well) were placed into upper chambers and tested PDI inhibitors at various concentrations (1, 10, 30, 50, 100 μM) were given. Lower chambers were filled with medium containing chemoattractant (20% FBS or 100 ng/mL SDF-1α). After 24 h of co-culture, hLMVEC monolayers and non-migrating cancer cells on the upper surface of the membrane were removed. […] The cell number was determined by measuring the fluorescence using plate reader. […]",
  "data": [
    {"smiles": "COC(=O)C1CN1S(=O)(=O)c1ccc2c(C=O)c(N(C)C)ccc2c1", "note": "(stereo not shown) [Compound C-3390, Methyl 1-[[6-(dimethylamino)-5-formyl-2-naphthyl]sulfonyl]aziridine-2-calboxylate]", "values": [
      {"measurement": "Inhibition of MDA-MB-231 cell transmigration", "result": "inhibited MDA-MB-231 cell transmigration"}
    ]}
  ]
}
